Source: patent US10189854B2, “Substituted pyrimidine compounds” (Grünenthal GmbH, priority 2014, dated 2019)

Target: human PDE4B1 (Homo sapiens (Human), UniProt Q07343)
Assay: cAMP HTRF assay to determine the activity of hPDE4B1
Type: biochemical
Settings: IC50 inhibition of PDE4B; human recombinant PDE4B1, cAMP HTRF assay
How it was run: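 Recombinant human PDE4B1 expressed in Sf9 cells (4.8 U) was incubated with 40 nM cAMP for 30 min at room temperature in Tris buffer, pH 7.8, with MgCl2, DTT and Tween 20. HTRF detection of remaining cAMP followed, with 1 mM IBMX stop, read 60 min later as the 665/620 nm ratio. Results are % inhibition versus control.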

Chain of human PDE4B1 (Q07343 whole entry): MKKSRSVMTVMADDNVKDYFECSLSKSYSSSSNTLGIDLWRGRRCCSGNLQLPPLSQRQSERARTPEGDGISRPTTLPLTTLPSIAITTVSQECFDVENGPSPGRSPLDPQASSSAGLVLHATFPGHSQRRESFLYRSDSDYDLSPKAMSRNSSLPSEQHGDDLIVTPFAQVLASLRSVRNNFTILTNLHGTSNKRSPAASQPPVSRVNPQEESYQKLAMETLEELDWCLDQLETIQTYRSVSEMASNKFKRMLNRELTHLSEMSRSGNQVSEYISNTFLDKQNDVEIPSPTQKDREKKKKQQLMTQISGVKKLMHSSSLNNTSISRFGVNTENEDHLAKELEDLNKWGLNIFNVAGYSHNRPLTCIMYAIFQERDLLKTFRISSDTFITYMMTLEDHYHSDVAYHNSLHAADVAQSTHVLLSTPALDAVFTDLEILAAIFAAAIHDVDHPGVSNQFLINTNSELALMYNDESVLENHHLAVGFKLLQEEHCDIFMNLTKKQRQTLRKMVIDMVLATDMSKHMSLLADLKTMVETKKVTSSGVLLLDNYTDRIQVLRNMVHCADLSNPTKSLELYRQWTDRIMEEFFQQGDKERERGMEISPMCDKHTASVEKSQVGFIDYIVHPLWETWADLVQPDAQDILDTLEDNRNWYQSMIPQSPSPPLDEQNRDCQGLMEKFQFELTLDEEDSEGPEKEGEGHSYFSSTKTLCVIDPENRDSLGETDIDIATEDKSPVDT

IC50 | Compound
< 0.1 µM | N#Cc1ccsc1-c1cnc(N2CC3(CC3)c3ccc(C(=O)N4CCOCC4)cc32)nc1 [Compound 153, 2-[2-[6-(Morpholine-4-carbonyl)-spiro[1,2-dihydro-indole-3,1′-cyclopropane]-1-yl]-pyrimidin-5-yl]-thiophene-3-carbonitrile]
0.1 to 1 µM | N#Cc1cccc(F)c1-c1cnc(N2CC3(CC3)c3ccc(C(=O)N4CCOCC4)cc32)nc1 [Compound 20, 3-Fluoro-2-[2-[6-(morpholine-4-carbonyl)-spiro[1,2-dihydro-indole-3,1′-cyclopropane]-1-yl]-pyrimidin-5-yl]-benzonitrile]
< 0.1 µM | O=C(c1ccc2c(c1)N(c1ncc(-c3cn[nH]c3C(F)(F)F)cn1)CC21CC1)N1CCOCC1 [Compound 140, Morpholin-4-yl-[1-[5-[5-(trifluoromethyl)-1H-pyrazol-4-yl]-pyrimidin-2-yl]-spiro[1,2-dihydro-indole-3,1′-cyclopropane]-6-yl]-methanone]
0.1 to 1 µM | N#CCCN1CCN(C(=O)c2ccc3c(c2)N(c2ncc(-c4ccccc4F)cn2)CC32CC2)CC1 [Compound 76, 3-[4-[1-[5-(2-Fluorophenyl)-pyrimidin-2-yl]-spiro[1,2-dihydro-indole-3,1′-cyclopropane]-6-carbonyl]-piperazin-1-yl]-propionitrile]
0.1 to 1 µM | O=C(c1cnc2c(c1)N(c1ncc(-c3ccccc3F)cn1)CC21CC1)N1CCOCC1 [Compound 169, [1-[5-(2-Fluorophenyl)-pyrimidin-2-yl]-spiro[1,2-dihydro-pyrrolo[3,2-b]pyridine-3,1′-cyclopropane]-6-yl]-morpholin-4-yl-methanone]
0.1 to 1 µM | CN(Cc1ccco1)C(=O)c1ccc2c(c1)N(c1ncc(-c3ccccc3F)cn1)CC21CC1 [Compound 91, 1-[5-(2-Fluorophenyl)-pyrimidin-2-yl]-N-(furan-2-yl-methyl)-N-methyl-spiro[1,2-dihydro-indole-3,1′-cyclopropane]-6-carboxylic acid amide]
0.1 to 1 µM | CN(C(=O)c1ccc2c(c1)N(c1ncc(-c3ccccc3F)cn1)CC21CC1)c1ccncc1 [Compound 88, 1-[5-(2-Fluorophenyl)-pyrimidin-2-yl]-N-methyl-N-pyridin-4-yl-spiro[1,2-dihydro-indole-3,1′-cyclopropane]-6-carboxylic acid amide]
< 0.1 µM | O=C(c1ccc2c(c1)N(c1ncc(-c3cc(F)cnc3F)cn1)CC21CC1)N1CCOCC1 [Compound 163, [1-[5-(2,5-Difluoro-pyridin-3-yl)-pyrimidin-2-yl]-spiro[1,2-dihydro-indole-3,1′-cyclopropane]-6-yl]-morpholin-4-yl-methanone]
< 0.1 µM | NC(=O)c1ccc(-c2cnc(N3CC4(CC4)c4ccc(C(=O)N5CCOCC5)cc43)nc2)c(F)c1 [Compound 26, 3-Fluoro-4-[2-[6-(morpholine-4-carbonyl]-spiro[1,2-dihydro-indole-3,1′-cyclopropane]-1-yl]-pyrimidin-5-yl]-benzamide]
< 0.1 µM | O=C(c1ccc2c(c1)N(c1ncc(-c3ccccn3)cn1)CC21CC1)N1CCOCC1 [Compound 150, Moprholin-4-yl-[1-(5-pyridin-2-yl-pyrimidin-2-yl)-spiro[1,2-dihydro-indole-3,1′-cyclopropane]-6-yl]-methanone]
< 0.1 µM | O=C(c1ccc2c(c1)N(c1ncc(-c3ccccc3)cn1)CC21CC1)N1CCOCC1 [Compound 7, Morpholin-4-yl-[1-(5-phenyl-pyrimidin-2-yl)-spiro[1,2-dihydro-indole-3,1′-cyclopropane]-6-yl]-methanone]
< 0.1 µM | NC(=O)c1ccnc(-c2cnc(N3CC4(CC4)c4ccc(C(=O)N5CCOCC5)cc43)nc2)c1 [Compound 164, 2-[2-[6-(Morpholine-4-carbonyl)-spiro[1,2-dihydro-indole-3,1′-cyclopropane]-1-yl]-pyrimidin-5-yl]-pyridine-4-carboxylic acid amide]
< 0.1 µM | CN(C)C(=O)c1ccc2c(c1)N(c1ncc(-c3ccccc3)cn1)CC21CC1 [Compound 124, N,N-Dimethyl-1-(5-phenyl-pyrimidin-2-yl)-spiro[1,2-dihydro-indole-3,1′-cyclopropane]-6-carboxylic acid amide]
< 0.1 µM | O=C1CN(C(=O)c2ccc3c(c2)N(c2ncc(-c4ccccc4)cn2)CC32CC2)CCN1 [Compound 55, 4-[1-(5-Phenyl-pyrimidin-2-yl)-spiro[1,2-dihydro-indole-3,1′-cyclopropane]-6-carbonyl]-piperazin-2-one]
1 to 10 µM | O=C(c1ccc2c(c1)N(c1ncc(-c3ccccc3F)cn1)CC21CC1)N1CC2(CCNC2)C1 [Compound 111]
< 0.1 µM | NC(=O)c1ccc(-c2cnc(N3CC4(CC4)c4ccc(C(=O)N5CCOCC5)cc43)nc2)o1 [Compound 156, 5-[2-[6-(Morpholine-4-carbonyl)-spiro[1,2-dihydro-indole-3,1′-cyclopropane]-1-yl]-pyrimidin-5-yl]-furan-2-carboxylic acid amide]

IC50 | Compound
< 0.1 µM | O=C(c1ccc2c(c1)N(c1ncc(-c3ccccc3F)cn1)CC21CC1)N1CCN(CCO)CC1 [Compound 34, [1-[5-(2-Fluorophenyl)-pyrimidin-2-yl]-spiro[1,2-dihydro-indole-3,1′-cyclopropane]-6-yl]-[4-(2-hydroxy-ethyl)-piperazin-1-yl]-methanone]
0.1 to 1 µM | O=C(c1ccc2c(c1)N(c1ncc(Oc3ccccc3F)cn1)CC21CC1)N1CCOCC1 [Compound 179, [1-[5-(2-Fluoro-phenoxy)-pyrimidin-2-yl]-spiro[1,2-dihydro-indole-3,1′-cyclopropane]-6-yl]-morpholin-4-yl-methanone]
< 0.1 µM | O=C(c1ccc2c(c1)N(c1ncc(-c3ccccc3F)cn1)CC21CC1)N1CCCCC1 [Compound 84, [1-[5-(2-Fluorophenyl)-pyrimidin-2-yl]-spiro[1,2-dihydro-indole-3,1′-cyclopropane]-6-yl]-piperidin-1-yl-methanone]
< 0.1 µM | N#Cc1ccc(F)c(-c2cnc(N3CC4(CC4)c4ccc(C(=O)N5CCOCC5)cc43)nc2)c1 [Compound 22, 4-Fluoro-3-[2-[6-(morpholine-4-carbonyl)-spiro[1,2-dihydro-indole-3,1′-cyclopropane]-1-yl]-pyrimidin-5-yl]-benzonitrile]
< 0.1 µM | O=C(c1ccc2c(c1)N(c1ncc(-c3c(F)cncc3F)cn1)CC21CC1)N1CCOCC1 [Compound 166, [1-[5-(3,5-Difluoro-pyridin-4-yl)-pyrimidin-2-yl]-spiro[1,2-dihydro-indole-3,1′-cyclopropane]-6-yl]-morpholin-4-yl-methanone]
< 0.1 µM | O=C1CN(C(=O)c2ccc3c(c2)N(c2ncc(-c4ccccn4)cn2)CC32CC2)CCN1 [Compound 180, 4-[1-(5-Pyridin-2-yl-pyrimidin-2-yl)-spiro[1,2-dihydro-indole-3,1′-cyclopropane]-6-carobnyl]-piperazin-2-one]
< 0.1 µM | O=C(c1ccc2c(c1)N(c1ncc(-c3ccccc3F)cn1)CC21CC1)N1CC2CC1CN2 (stereo not shown) [Compound 107, (2,5-Diazabicyclo[2.2.1]heptan-2-yl)-[1-[5-(2-fluorophenyl)-pyrimidin-2-yl]-spiro[1,2-dihydro-indole-3,1′-cyclopropane]-6-yl]-methanone]
< 0.1 µM | CS(=O)(=O)c1ccc(F)c(-c2cnc(N3CC4(CC4)c4ccc(C(=O)N5CCOCC5)cc43)nc2)c1 [Compound 42, [1-[5-(2-Fluoro-5-methylsulfonyl-phenyl)-pyrimidin-2-yl]-spiro[1,2-dihydro-indole-3,1′-cyclopropane]-6-yl]-morpholin-4-yl-methanone]
0.1 to 1 µM | CCN(C)C(=O)c1ccc2c(c1)N(c1ncc(-c3ccccc3F)cn1)CC21CC1 [Compound 90, N-Ethyl-1-[5-(2-fluorophenyl)-pyrimidin-2-yl]-N-methyl-spiro[1,2-dihydro-indole-3,1′-cyclopropane]-6-carboxylic acid amide]
0.1 to 1 µM | O=C(c1ccc2c(c1)N(c1ncc(-c3ccc(F)c(F)c3)cn1)CC21CC1)N1CCOCC1 [Compound 53, [1-[5-(3,4-Difluoro-phenyl)-pyrimidin-2-yl]-spiro[1,2-dihydro-indole-3,1′-cyclopropane]-6-yl]-morpholin-4-yl-methanone]
0.1 to 1 µM | O=C(c1ccc2c(c1)N(c1ncc(-c3ccccc3Cl)cn1)CC21CC1)N1CCOCC1 [Compound 6, [1-[5-(2-Chlorophenyl)-pyrimidin-2-yl]-spiro[1,2-dihydro-indole-3,1′-cyclopropane]-6-yl]-morpholin-4-yl-methanone]
0.1 to 1 µM | COCCCNC(=O)c1ccc2c(c1)N(c1ncc(-c3ccccc3F)cn1)CC21CC1 [Compound 75, 1-[5-(2-Fluorophenyl)-pyrimidin-2-yl]-N-(3-methoxy-propyl)-spiro[1,2-dihydro-indole-3,1′-cyclopropane]-6-carboxylic acid amide]
< 0.1 µM | NC(=O)c1ccc(-c2cnc(N3CC4(CC4)c4ccc(C(=O)N5CCOCC5)cc43)nc2)cc1 [Compound 63, 4-[2-[6-(Morpholine-4-carbonyl)-spiro[1,2-dihydro-indole-3,1′-cyclopropane]-1-yl]-pyrimidin-5-yl]-benzamide]
0.1 to 1 µM | CN(C(=O)c1ccc2c(c1)N(c1ncc(-c3ccccc3F)cn1)CC21CC1)C1CCOCC1 [Compound 102, 1-[5-(2-Fluorophenyl)-pyrimidin-2-yl]-N-methyl-N-tetrahydro-pyran-4-yl-spiro[1,2-dihydro-indole-3,1′-cyclopropane]-6-carboxylic acid amide]
< 0.1 µM | CC1COCCN1C(=O)c1ccc2c(c1)N(c1ncc(-c3ccccc3F)cn1)CC21CC1 (stereo not shown) [Compound 103, [1-[5-(2-Fluorophenyl)-pyrimidin-2-yl]-spiro[1,2-dihydro-indole-3,1′-cyclopropane]-6-yl]-(3-methyl-morpholin-4-yl)-methanone]
